Literature values as cited in PMC4059071 (Angewandte Chemie (International ed. in English), 2013).

Tested on: Akt
Settings: ref [13]

## Cc1n[nH]c2ccc(-c3cncc(OC[C@@H](N)Cc4c[nH]c5ccccc45)c3)cc12 [A-443654]
Thr308 and Ser473 of Akt
  effect on Akt phosphorylation: paradoxical hyperphosphorylation of Akt at both Thr308 and Ser473
  effect on Akt protein activity after inhibitor dissociation: protein reactivation after inhibitor dissociation
